Earlier results in patent US20070059365A1, “Novel formulation of ropinirole” (priority 2003, published 2007).

Conditions: in vivo

half-life of ropinirole: 5 to 6 h
Structure (SMILES): CCCN(CCC)CCc1cccc2c1CC(=O)N2.Cl [ropinirole, 4-(2-di-n-propylaminoethyl)-2(3H)-indolone hydrochloride]
